In patent publication US20070004660A1, “Synergistic Modulation of Flt3 Kinase Using Alkylquinolines and Alkylquinazolines” (priority 2005, published 2007):

target: T1, wild-type FLT3 receptor (Homo sapiens, UniProt P36888); experiment: Cell-based FLT3 receptor ELISA (FLT ligand-induced phosphorylation in Baf3 FLT3 cells); details: 100 ng/mL Flt ligand, uncertainty ±20%
T1 construct: host or cells: Baf3 (murine B cell lymphoma line), stably transfected
T1 sequence (P36888 27-993): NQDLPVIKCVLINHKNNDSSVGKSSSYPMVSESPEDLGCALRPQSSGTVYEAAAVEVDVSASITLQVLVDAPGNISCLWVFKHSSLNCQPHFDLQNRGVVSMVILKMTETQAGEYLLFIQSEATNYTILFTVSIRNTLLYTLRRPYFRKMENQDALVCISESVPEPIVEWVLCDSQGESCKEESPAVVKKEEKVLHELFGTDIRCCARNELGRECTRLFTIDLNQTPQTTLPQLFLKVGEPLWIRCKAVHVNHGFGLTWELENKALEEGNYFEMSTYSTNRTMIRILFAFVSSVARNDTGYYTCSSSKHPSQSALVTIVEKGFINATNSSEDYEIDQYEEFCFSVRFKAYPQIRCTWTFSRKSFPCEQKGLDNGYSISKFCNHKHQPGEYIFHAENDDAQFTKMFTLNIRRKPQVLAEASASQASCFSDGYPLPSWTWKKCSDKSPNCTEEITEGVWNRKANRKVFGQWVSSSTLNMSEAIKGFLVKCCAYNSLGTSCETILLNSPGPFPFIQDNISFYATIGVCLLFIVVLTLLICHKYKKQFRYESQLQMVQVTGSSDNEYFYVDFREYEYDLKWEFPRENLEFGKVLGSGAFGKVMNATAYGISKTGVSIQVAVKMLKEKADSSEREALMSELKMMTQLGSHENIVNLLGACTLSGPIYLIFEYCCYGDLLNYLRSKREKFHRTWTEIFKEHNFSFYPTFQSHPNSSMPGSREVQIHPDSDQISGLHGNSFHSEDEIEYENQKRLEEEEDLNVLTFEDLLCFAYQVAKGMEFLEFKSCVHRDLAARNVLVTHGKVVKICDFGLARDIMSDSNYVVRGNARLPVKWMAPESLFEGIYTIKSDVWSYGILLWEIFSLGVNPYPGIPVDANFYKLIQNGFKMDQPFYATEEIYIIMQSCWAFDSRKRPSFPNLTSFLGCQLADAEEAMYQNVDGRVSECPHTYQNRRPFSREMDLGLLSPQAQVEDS
Method in brief: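 Receptor phosphotyrosine measured by sandwich ELISA (anti-FLT3 capture, HRP anti-pTyr, luminescence) in FLT3-transfected murine Baf3 cells given 1 h compound pretreatment and 10 min 100 ng/mL FLT ligand after overnight low-serum starvation; triplicates, IC50 from nonlinear regression.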

Row | Compound | IC50 [nM]
1 | COc1cc2ncnc(C3CCN(C(=O)Nc4ccc(N5CCOCC5)cc4)CC3)c2cc1OC [Example 18, 4-(6,7-Dimethoxy-quinazolin-4-yl)-piperidine-1-carboxylic acid (4-morpholin-4-yl-phenyl)-amide] | 104
2 | COc1cc2ncnc(C3CCN(C(=O)Nc4ccc(N5CCCCC5)cc4)CC3)c2cc1OC [Example 19, 4-(6,7-Dimethoxy-quinazolin-4-yl)-piperidine-1-carboxylic acid (4-piperidin-1-yl-phenyl)-amide] | 17
3 | COc1cc2ncnc(C3CCN(C(=O)Nc4ccc(C5CCCCC5)cc4)CC3)c2cc1OC [Example 21, 4-(6,7-Dimethoxy-quinazolin-4-yl)-piperidine-1-carboxylic acid (4-cyclohexyl-phenyl)-amide] | 2
4 | COc1cc2ncnc(C3CCN(C(=O)Nc4ccc(CO)cc4)CC3)c2cc1OC [Example 22, 4-(6,7-Dimethoxy-quinazolin-4-yl)-piperidine-1-carboxylic acid (4-hydroxymethyl-phenyl)-amide] | 5100
5 | COc1cc2ncnc(C3CCN(C(=O)Nc4ccc5[nH]ccc5c4)CC3)c2cc1OC [Example 23, 4-(6,7-Dimethoxy-quinazolin-4-yl)-piperidine-1-carboxylic acid (1H-indol-5-yl)-amide] | 900
6 | COc1cc2ncnc(C3CCN(C(=O)Nc4ccc5ncsc5c4)CC3)c2cc1OC [Example 24, 4-(6,7-Dimethoxy-quinazolin-4-yl)-piperidine-1-carboxylic acid benzothiazol-6-ylamide] | 2600
7 | O=C(Nc1ccc(N2CCOCC2)cc1)N1CCC(c2ncnc3cc(N4CC[C@H](O)C4)ccc23)CC1 [Example 128, 4-[7-(3-Hydroxy-pyrrolidin-1-yl)-quinazolin-4-yl]-piperidine-1-carboxylic acid (4-morpholin-4-yl-phenyl)-amide] | 58
8 | CC(C)Oc1ccc(NC(=O)N2CCC(c3ncnc4ccc(N5CCN(C)CC5)cc34)CC2)cc1 [Example 131, 4-[6-(4-Methyl-piperazin-1-yl)-quinazolin-4-yl]-piperidine-1-carboxylic acid (4-isopropoxy-phenyl)-amide] | 226
9 | O=C(Nc1ccc(N2CCOCC2)cc1)N1CCC(c2ncnc3cc(N4CCC[C@@H]4CO)ccc23)CC1 [Example 132, (R)-4-[7-(2-Hydroxymethyl-pyrrolidin-1-yl)-quinazolin-4-yl]-piperidine-1-carboxylic acid (4-morpholin-4-yl-phenyl)-amide] | 27
10 | O=C(Nc1ccc(N2CCOCC2)cc1)N1CCC(c2ncnc3cc(OCCCN4CCOCC4)ccc23)CC1 [Example 133, 4-[7-(3-Morpholin-4-yl-propoxy)-quinazolin-4-yl]-piperidine-1-carboxylic acid (4-morpholin-4-yl-phenyl)-amide] | 26
11 | CCN(CC)CCCOc1ccc2c(C3CCN(C(=O)Nc4ccc(N5CCOCC5)cc4)CC3)ncnc2c1 [Example 134, 4-[7-(3-Diethylamino-propoxy)-quinazolin-4-yl]-piperidine-1-carboxylic acid (4-morpholin-4-yl-phenyl)-amide] | 31
12 | CN1CCN(c2ccc3c(C4CCN(C(=O)Nc5ccc(N6CCOCC6)cc5)CC4)ncnc3c2)CC1 [Example 135, 4-[7-(4-Methyl-piperazin-1-yl)-quinazolin-4-yl]-piperidine-1-carboxylic acid (4-morpholin-4-yl-phenyl)-amide] | 27
13 | CCN1CCN(c2ccc3c(C4CCN(C(=O)Nc5ccc(N6CCOCC6)cc5)CC4)ncnc3c2)CC1 [Example 136, 4-[7-(4-Ethyl-piperazin-1-yl)-quinazolin-4-yl]-piperidine-1-carboxylic acid (4-morpholin-4-yl-phenyl)-amide] | 36
14 | O=C(Nc1ccc(N2CCOCC2)cc1)N1CCC(c2ncnc3cc(N4CCN(CCO)CC4)ccc23)CC1 [Example 137, 4-{7-[4-(2-Hydroxy-ethyl)-piperazin-1-yl]-quinazolin-4-yl}-piperidine-1-carboxylic acid (4-morpholin-4-yl-phenyl)-amide] | 41
15 | CN1CCCN(c2ccc3c(C4CCN(C(=O)Nc5ccc(N6CCOCC6)cc5)CC4)ncnc3c2)CC1 [Example 138, 4-[7-(4-Methyl-[1,4]diazepan-1-yl)-quinazolin-4-yl]-piperidine-1-carboxylic acid (4-morpholin-4-yl-phenyl)-amide] | 107
16 | O=C(Nc1ccc(N2CCOCC2)cc1)N1CCC(c2ncnc3cc(N4CCC[C@H]4CO)ccc23)CC1 [Example 139, (S)-4-[7-(2-Hydroxymethyl-pyrrolidin-1-yl)-quinazolin-4-yl]-piperidine-1-carboxylic acid (4-morpholin-4-yl-phenyl)-amide] | 211
17 | O=C(Nc1ccc(N2CCOCC2)cc1)N1CCC(c2ncnc3cc(N4CCNCC4)ccc23)CC1 [Example 140, 4-(7-Piperazin-1-yl-quinazolin-4-yl)-piperidine-1-carboxylic acid (4-morpholin-4-yl-phenyl)-amide] | 31
18 | CC(=O)N1CCN(c2ccc3c(C4CCN(C(=O)Nc5ccc(N6CCOCC6)cc5)CC4)ncnc3c2)CC1 [Example 141, 4-[7-(4-Acetyl-piperazin-1-yl)-quinazolin-4-yl]-piperidine-1-carboxylic acid (4-morpholin-4-yl-phenyl)-amide] | 2
19 | CS(=O)(=O)N1CCN(c2ccc3c(C4CCN(C(=O)Nc5ccc(N6CCOCC6)cc5)CC4)ncnc3c2)CC1 [Example 142, 4-[7-(4-Methanesulfonyl-piperazin-1-yl)-quinazolin-4-yl]-piperidine-1-carboxylic acid (4-morpholin-4-yl-phenyl)-amide] | 5
20 | CN(C)C(=O)N1CCN(c2ccc3c(C4CCN(C(=O)Nc5ccc(N6CCOCC6)cc5)CC4)ncnc3c2)CC1 [Example 143, 4-{4-[1-(4-Morpholin-4-yl-phenylcarbamoyl)-piperidin-4-yl]-quinazolin-7-yl}-piperazine-1-carboxylic acid dimethylamide] | 1
21 | CN(C)CC(=O)N1CCN(c2ccc3c(C4CCN(C(=O)Nc5ccc(N6CCOCC6)cc5)CC4)ncnc3c2)CC1 [Example 144, 4-{7-[4-(2-Dimethylamino-acetyl)-piperazin-1-yl]-quinazolin-4-yl}-piperidine-1-carboxylic acid (4-morpholin-4-yl-phenyl)-amide] | 170
22 | O=C(Nc1ccc(N2CCOCC2)cc1)N1CCC(c2ncnc3cc(N4CCOCC4)ccc23)CC1 [Example 145, 4-(7-Morpholin-4-yl-quinazolin-4-yl)-piperidine-1-carboxylic acid (4-morpholin-4-yl-phenyl)-amide] | 14
23 | CS(=O)(=O)CCNc1ccc2c(C3CCN(C(=O)Nc4ccc(N5CCOCC5)cc4)CC3)ncnc2c1 [Example 146, 4-[7-(2-Methanesulfonyl-ethylamino)-quinazolin-4-yl]-piperidine-1-carboxylic acid (4-morpholin-4-yl-phenyl)-amide] | 87
24 | O=C(Nc1ccc(N2CCCC2)cc1)N1CCC(c2ncnc3cc(OCCN4CCOC4=O)ccc23)CC1 [Example 147, 4-{7-[2-(2-Oxo-oxazolidin-3-yl)-ethoxy]-quinazolin-4-yl}-piperidine-1-carboxylic acid (4-pyrrolidin-1-yl-phenyl)-amide] | 0.2
